Measured values published in US20220175825A1, “COMPOSITION AND ASSOCIATED DELIVERY DEVICE FOR HYDROGEN THERAPY” (UNIVERSITE GRENOBLE ALPES, priority 2019, published 2022).

How the values were obtained:
[1] = cited from earlier work
[2] = kinetics of dihydrogen release on dissolution of a hydride composition in 30 mL PBS solution, according to pH; format: physicochemical; settings: substantially 13 mg hydride in 30 mL PBS
[3] = pH of the PBS solution following dissolution of the hydride; format: physicochemical; settings: after dissolution

| SMILES | saturation limit concentration in water [1] [ppm] | required time for reaching the release of about 1 ppm of dihydrogen after immersion ([2]; pH 5.8) | required time for reaching the release of about 1 ppm of dihydrogen after immersion ([2]; pH 7.4) [min] | required time for reaching the release of about 1 ppm of dihydrogen after immersion ([2]; pH 8.45) [min] | pH of the PBS solution following the dissolution of the hydride [3] |
| --- | --- | --- | --- | --- | --- |
| [HH] [dihydrogen] | 1.57 | – | – | – | – |
| [H-].[H-].[Mg+2] [magnesium hydride] | – | about 30 seconds | ~4 | ~5 | 10 |
